Data reported in patent US8507484B2, “Preventive and/or therapeutic agent for neutrophilic inflammatory diseases” (Kyowa Hakko Kirin Co., Ltd., priority 2004, dated 2013).
Where a name gives a salt, the structure may show the parent alone. Blank lines part the entries; values can stand above or below the molecule they belong to.

Assays:
human GPR4 = target: T1, human GPR4 (Homo sapiens, UniProt P46093); experiment: GPR4 antagonism, luciferase reporter assay in human GPR4 assay cells; format: cell-based; settings: 1 μmol/L test compound, 10 nmol/L 17β-estradiol, 6 hours, firefly luciferase reporter; for inhibition at 1 µM: read-out: Inhibition rate (%)
T1 construct: expressed in transfected cells; expression induced by 17β-estradiol
T1 sequence (P46093 whole entry): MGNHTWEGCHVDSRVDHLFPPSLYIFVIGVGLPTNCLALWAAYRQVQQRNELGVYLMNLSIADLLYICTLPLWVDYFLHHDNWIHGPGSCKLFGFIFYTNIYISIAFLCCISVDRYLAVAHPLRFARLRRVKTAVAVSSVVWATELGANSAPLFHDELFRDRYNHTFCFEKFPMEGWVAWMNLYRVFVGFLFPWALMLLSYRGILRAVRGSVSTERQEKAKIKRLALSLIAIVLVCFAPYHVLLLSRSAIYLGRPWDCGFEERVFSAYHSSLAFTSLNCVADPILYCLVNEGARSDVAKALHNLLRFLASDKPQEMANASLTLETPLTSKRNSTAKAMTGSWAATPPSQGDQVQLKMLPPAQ
Protocol: Assay cells for human GPR4 were constructed according to the method descried in WO03/087366. By using the assay cells, the constitutive activity of human GPR4 can be detected by activity of a reporter (firefly luciferase).
Plasmid pAGal9-GPR4 for inducible expression of human GPR4 (2 μg: WO03/087366) and reporter plasmid pACREpluc (2 μg; WO03/087366) were co-transferred into 6×10^6 cells of KJMGER8 (WO03/087366) by electroporation. The resultant transformant was suspended in 8 mL of a RPMI1640-ITPSG medium [RPMI medium (Nissui Pharmaceutical Co., Ltd.) containing 6 mmol/L of L-glutamine (Invitrogen Corp.), 100 units/ml of penicillin (Invitrogen Corp.), 100 μg/ml of streptomycin (Invitrogen Corp.), 10 mmol/L of N-2-hydroxyethylpiperazine-N′-2-ethanesulfonic acid (HEPES) (Nacalai Tesque Inc.), 3 μg/ml of insulin (Sigma Co. Ltd.), 5 μg/ml of transferrin (Sigma Co. Ltd.), 5 mmol/L of sodium pyruvate (Wako Pure Chemical Industries, Ltd.), 125 nmol/L of selenious acid (Nacalai Tesque Inc.), and 1 mg/ml of galactose (Nacalai Tesque Inc.)], followed by culture in a CO^2 incubator at 37° C. for 24 hours. After the culture, blasticidin S (Funakoshi Co., Ltd., 2.0 μg/ml), hygromycin B (Wako Pure Chemical Industries, Ltd., 300 μg/ml), and geneticin (Nacalai Tesque Inc., 500 μg/ml) were added to the culture solution, followed by further culture for 14 days to prepare a stable transformant (referred to as “GPR4 assay cells”). The transformant was subcultured in a RPMI1640-ITPSG medium containing blastocidin S (Funakoshi Co., Ltd., 2.0 μg/ml), hygromycin B (manufactured by Wako Pure Chemical Industries, Ltd., 300 μg/ml), and geneticin (Nacalai Tesque Inc., 500 μg/ml).
Similarly, control plasmid pAGal9-nd (2 μg; WO03/087366) and reporter plasmid pACREpluc (2 μg; WO03/087366) were co-transferred in KJMGER8 to prepare a stable transformant (referred to as “control cells”).
The resulting human GPR4 assay cells (expressing GPR4 by stimuli of 17β-estradiol) were seeded onto a white plate at a concentration of 10^5 cells per well. Then, 17β-estradiol (Sigma Co. Ltd.), which was diluted with a medium so that the concentration in the reaction solution was 10 nmol/L, and 1 μmol/L of test compound were added to each well, followed by reaction in a 5% CO2 incubator at 37° C. for 6 hours. Then, a Steady Glo Luciferase Assay System (Promega Co., Ltd.) solution was added to terminate the reaction, and the quantity of light emitted per second was measured by a TOP count (Packard, Meriden, Conn., USA).
The activity (GPR4 antagonism) of the test compound was shown by an inhibition rate calculated on the basis of counts (counts per second) in the presence or absence of 17β-estradiol according to the following equation:
[formula] wherein A, B, and C represent the following values: […]
A: counts when 17β-estradiol and test compound were added
B: counts when neither 17β-estradiol nor test compound was added
C: counts when only 17β-estradiol was added

[1] = tested on: LPC-induced neutrophil infiltration into airway; experiment: Inhibitory activity on LPC-induced neutrophil infiltration into airway (Test Example 2); format: in vivo; settings: 100 mg/kg orally 1 hour before intratracheal LPC; BALF 6 hours after LPC; male BALB/c mice
Protocol: male BALB/c mice of 7-week old were intratracheally administered with 0.1 ml of a 1 mg/mL LPC solution prepared by dissolving in a 0.1% aqueous bovine serum albumin solution or a 0.1% aqueous bovine serum albumin solution (negative control group). Six hours after, bronchoalveola lavage was conducted, and the neutrophil infiltration in the recovered BALF was measured. In addition, Compound 53 or Compound 81 was suspended in a 0.5% aqueous methyl cellulose solution (solvent), and 100 mg/kg of the resultant suspension was orally administered to the mice 1 hour before LPC administration. In a […] control group, the solvent was administered instead of the test compound suspension. The infiltration of neutrophils was measured by measuring the number of cells in the recovered BALF with an automatic blood counter (Celltac α MEK-6158, Nihon Kohden Corporation, Tokyo) and then counting the number of neutrophils under a microscope using a smear prepared with Cytospin 3 (Shandon, Inc., Pittsburgh, Pa., USA). The number of neutrophils was calculated by multiplying the total number of cells by the percentage of the neutrophils. In this test, six mice per group were used for Compound 53, and six or seven mice per group were used for Compound 81.

[2] = tested on: LPC-induced neutrophil infiltration into airway; experiment: Inhibitory activity on LPC-induced neutrophil infiltration into airway (Test Example 3); format: in vivo; settings: 10 mg/kg orally 1 hour before intratracheal LPC; BALF 6 hours after LPC; male BALB/c mice
Protocol: Male BALB/c mice of 7-week old were intratracheally administered with 0.1 mL of a 1 mg/mL LPC solution prepared by dissolving in a 0.1% aqueous bovine serum albumin solution or a 0.1% aqueous bovine serum albumin solution (negative control group). Six hours after, bronchoalveola lavage was conducted, and the neutrophil infiltration in the recovered BALF was measured. In addition, Compound 118 or Compound 160 was suspended in a 0.5% aqueous methyl cellulose solution (solvent), and 10 mg/kg of the resultant suspension was orally administered to the mice 1 hour before LPC administration. In a […] control group, the solvent was administered instead of the test compound suspension. The infiltration of neutrophils was measured by measuring the number of cells in the recovered BALF with an automatic blood counter (Celltac α MEK-6158, Nihon Kohden Corporation, Tokyo) and then counting the number of neutrophils under a microscope using a smear prepared with Cytospin 3 (Shandon, Inc., Pittsburgh, Pa., USA). The number of neutrophils was calculated by multiplying the total number of cells by the percentage of the neutrophils. In this test, five mice per group were used for Compound 118, and six mice per group were used for Compound 160.

Inhibition rate (%) (human GPR4): 74%
SMILES: CCc1nc2c(C)cc(C)nc2n1Cc1ccc(NC(=O)c2cccc3ccccc23)cc1 [Compound 53]
suppression of increase in the number of neutrophils in BALF as compared with the positive control group [1]: 47%

inhibition at 1 µM (human GPR4): 83%
SMILES: Cc1cc(C)c2nc(C)n(Cc3ccc(NCC4CCN(C5CCOCC5)CC4)cc3)c2n1 [Compound 158, 4-[4-(2,5,7-Trimethyl-3H-imidazo[4,5-b]pyridin-3-ylmethyl)phenylamino]methyl-1-(4-tetrahydropyranyl)piperidine]

Inhibition rate (%) (human GPR4): 77%
SMILES: CCc1nc2c(C)cc(C)nc2n1Cc1ccc(NC(=O)OC(C)(C)C)cc1 [Compound 81]
suppression of increase in the number of neutrophils in BALF as compared with the positive control group [1]: 42%

inhibition at 1 µM (human GPR4): 45%
SMILES: CCc1nc2c(C)cc(C)nc2n1Cc1ccc(Nc2ccccc2)cc1 [Compound 97, {4-(2-Ethyl-5,7-dimethylimidazo[4,5-b]pyridin-3-ylmethyl)phenyl}phenylamine]

inhibition at 1 µM (human GPR4): 97%
SMILES: CCc1nc2c(C)cc(C)nc2n1Cc1ccc(N[C@H]2CC[C@H](C(=O)NCCN3CCCC3)CC2)cc1 [Compound 118, trans-4-[4-(2-Ethyl-5,7-dimethyl-3H-imidazo[4,5-b]pyridin-3-ylmethyl)phenylamino]cyclohexanecarboxylic acid [2-(pyrrolidin-1-yl)ethyl]amide]
suppression of increase in the number of neutrophils in BALF as compared with the positive control group [2]: 60%

inhibition at 1 µM (human GPR4): 97%
SMILES: CCc1nc2c(C)cc(C)nc2n1Cc1ccc(NCC2CCNCC2)cc1 [Compound 143, 4-[4-(2-Ethyl-5,7-dimethyl-3H-imidazo[4,5-b]pyridin-3-ylmethyl)phenylamino]methylpiperidine]

SMILES: Cc1cc(C)c2nc(C)n(Cc3ccc(NCC4CCN(C5CCN(C)CC5)CC4)cc3)c2n1 [Compound 160, 4-[4-(2,5,7-Trimethyl-3H-imidazo[4,5-b]pyridin-3-ylmethyl)phenylamino]methyl-1-(1-methylpiperidin-4-yl)piperidine]
suppression of increase in the number of neutrophils in BALF as compared with the positive control group [2]: 74%

melting point: 146 to 150 °C
SMILES: CCc1nc2c(C)cc(C)nc2n1Cc1cnc(Nc2ccccc2)nc1 (as salt: hydrochloride)

inhibition at 1 µM (human GPR4): 31%
melting point: 98 °C
SMILES: CCc1nc2c(C)cc(C)nc2n1Cc1ccc(C(=O)c2ccccc2)cc1 [Compound 1, 4-(2-Ethyl-5,7-dimethylimidazo[4,5-b]pyridin-3-ylmethyl)benzophenone]

SMILES: CCc1nc2c(C)cc(C)nc2n1Cc1cccc(Nc2ccccc2)c1 [Compound 98]
Inhibition rate (%) (human GPR4): 37%

inhibition at 1 µM (human GPR4): 34%
melting point: 231 to 236 °C
SMILES: CCc1nc2c(C)cc(C)nc2n1Cc1cccc(C(=NO)c2cccc(CN3CCCC3)c2)c1 [Compound 24, 1-(3-{[3-(2-Ethyl-5,7-dimethylimidazo[4,5-b]pyridin-3-ylmethyl)phenyl]hydroxyiminomethyl}benzyl)pyrrolidine]
